In US9062041B2 (Bayer Intellectual Property GmbH, priority 2011, dated 2015):

Experiments:
Type in all cases: cell-based
[1] = molecular target: EP4 subtype of the human PGE2 receptor (Homo sapiens, UniProt P35408); test: cAMP antagonism test on the human EP4 receptor (HTRF cAMP detection); details: selectivity towards hEP4, IC50 measured by cAMP antagonism test
In short: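 Competitive HTRF cAMP read-out (cAMP-d2 vs Eu-cryptate anti-cAMP antibody, 665/620 nm ratio) on lysed human EP4 cells. Compound (0.8 nM–16.5 μM) applied 20 min at RT before 60 min PGE2 challenge (3× solution 0.3 nM, IBMX present); 20 min lysis precedes reading.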

[2] = molecular target: EP2 subtype of the human PGE2 receptor (Homo sapiens, UniProt P43116); test: cAMP antagonism test on the human EP2 receptor (HTRF cAMP detection); details: hEP2 receptor, read-out: Antagonism hEP2 IC50
In short: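 Read-out is a competitive HTRF for cAMP: lysate cAMP displaces cAMP-d2 from Eu cryptate-labelled antibody, and antagonism raises the 665/620 nm ratio. Compound (0.8 nM–16.5 μM) added to EP2 cells 20 min at RT before 60 min PGE2 challenge (3× stock 1.5 nM) with IBMX, followed by 20 min lysis.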

human PGD receptor = molecular target: T1, human PGD receptor (Homo sapiens, UniProt Q13258); test: cAMP antagonism test on the human prostaglandin D receptor (HTRF cAMP detection); details: selectivity towards hDP, IC50 measured by cAMP antagonism test
T1 sequence (Q13258 1-359): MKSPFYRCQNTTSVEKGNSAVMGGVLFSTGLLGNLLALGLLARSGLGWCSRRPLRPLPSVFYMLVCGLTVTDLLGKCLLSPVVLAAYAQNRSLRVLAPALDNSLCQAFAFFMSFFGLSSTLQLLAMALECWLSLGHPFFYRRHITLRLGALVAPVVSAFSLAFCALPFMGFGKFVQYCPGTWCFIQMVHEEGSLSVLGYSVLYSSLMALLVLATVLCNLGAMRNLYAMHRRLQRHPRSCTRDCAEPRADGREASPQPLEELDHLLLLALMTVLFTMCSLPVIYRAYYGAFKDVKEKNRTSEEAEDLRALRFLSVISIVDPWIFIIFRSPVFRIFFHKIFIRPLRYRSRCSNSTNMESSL
In short: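 HTRF competition read-out (665/620 nm ratio ×10000), where higher FRET means less cAMP, i.e. antagonism. Compounds (0.8 nM–16.5 μM) were preincubated 20 min at RT with cells and cAMP-d2, PGD2 (3× solution, 6 nM) in IBMX-containing PBS added for 30 min at RT, then cells lysed 20 min.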

Sequence of EP2 subtype of the human PGE2 receptor (P43116 whole entry): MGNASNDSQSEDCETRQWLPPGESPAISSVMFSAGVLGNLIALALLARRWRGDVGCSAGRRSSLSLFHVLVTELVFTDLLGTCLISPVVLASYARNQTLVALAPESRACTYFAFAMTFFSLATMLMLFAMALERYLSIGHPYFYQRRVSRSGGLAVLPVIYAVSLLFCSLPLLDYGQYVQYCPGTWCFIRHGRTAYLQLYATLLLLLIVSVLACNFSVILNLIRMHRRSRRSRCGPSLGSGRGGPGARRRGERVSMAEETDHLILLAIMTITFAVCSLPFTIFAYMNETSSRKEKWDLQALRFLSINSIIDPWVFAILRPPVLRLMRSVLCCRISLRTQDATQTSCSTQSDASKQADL
Sequence of EP4 subtype of the human PGE2 receptor (P35408 whole entry): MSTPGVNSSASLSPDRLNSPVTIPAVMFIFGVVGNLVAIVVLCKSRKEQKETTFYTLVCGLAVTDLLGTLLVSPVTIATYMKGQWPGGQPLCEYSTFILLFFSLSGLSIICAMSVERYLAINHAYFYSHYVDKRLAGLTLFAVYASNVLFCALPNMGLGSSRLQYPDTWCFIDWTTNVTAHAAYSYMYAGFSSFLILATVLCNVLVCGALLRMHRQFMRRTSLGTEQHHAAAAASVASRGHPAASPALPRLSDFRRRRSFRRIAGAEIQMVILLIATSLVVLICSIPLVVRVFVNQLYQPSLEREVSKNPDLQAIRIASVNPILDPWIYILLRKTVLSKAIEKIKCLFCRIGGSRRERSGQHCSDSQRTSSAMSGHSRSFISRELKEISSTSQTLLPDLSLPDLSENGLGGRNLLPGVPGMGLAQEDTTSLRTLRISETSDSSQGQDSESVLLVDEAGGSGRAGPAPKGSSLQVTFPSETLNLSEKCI

| Selectivity hEP2/hEP4 [1] | IC50 [2] | Selectivity hEP2/hDP (human PGD receptor) | SMILES |
| --- | --- | --- | --- |
| xxx (xxx > 100) | 79.8 nM | xxx (xxx > 100) | Cc1c(C(=O)NCC(F)(F)F)ccc2nn(CC3CCN(C(=O)c4cnc(-c5ccccc5)o4)CC3)cc12 [Example 300, 4-methyl-2-({1-[(2-phenyloxazol-5-yl)carbonyl]piperidin-4-yl}methyl)-N-(2,2,2-trifluoroethyl)-2H-indazol-5-carboxamide] |
| xxx (xxx > 100) | 24 nM | xxx (xxx > 100) | Cc1c(C(=O)NCCOCC2CC2)ccc2nn(CC3CCN(C(=O)c4ccc(C(F)(F)F)cc4)CC3)cc12 [Example 87, N-[2-(cyclopropyl-methoxy)ethyl]-4-methyl-2-({l-[4-(tri-fluoromethyl)benzoyl]piperidin-4-yl}-methyl)-2H-indazol-5-carboxamide] |
| xxx (xxx > 100) | 12 nM | xxx (xxx > 100) | COCCNC(=O)c1ccc2nn(CC3CCN(C(=O)c4ccc(-c5ccc(Cl)cn5)cc4)CC3)cc2c1C [Example 368, 2-({1-[4-(5-chloropyridin-2-yl)benzoyl]piperidin-4-yl}methyl)-N-(2-methoxy-ethyl)-4-methyl-2H-indazol-5-carboxamide] |
| xxx (xxx > 100) | 82.9 nM | xxx (xxx > 100) | Cc1c(C(=O)NCC(F)(F)F)ccc2nn(CC3CCN(C(=O)c4ccc(S(F)(F)(F)(F)F)cc4)CC3)cc12 [Example 71, 4-methyl-2-({1-[4-(pentafluoro-λ^6-sulphanyl)benzoyl]piperidin-4-yl}methyl)-N-(2,2,2-trifluoroethyl)-2H-indazol-5-carboxamide] |
| xxx (xxx > 100) | 5.52 nM | xxx (xxx > 100) | [2H]C([2H])([2H])OC([2H])([2H])C([2H])([2H])NC(=O)c1ccc2nn(CC3CCN(C(=O)c4ccc(Oc5ccc(F)cc5)cc4)CC3)cc2c1C [Example 116, 2-({1-[4-(4-fluoro-phenoxy)benzoyl]-piperidin-4-yl}methyl)-4-methyl-N-(2-[^2H3]-methyloxy[^2H4]ethyl)-2H-indazol-5-carboxamide] |
| xxx (xxx > 100) | 21.3 nM | xxx (xxx > 100) | Cc1c(C(=O)NCC2COCCO2)ccc2nn(CC3CCN(C(=O)c4ccc(Cl)cc4)CC3)cc12 (single isomer, unassigned) [Example 415, (S or R)-2-{[1-(4-chlorobenzoyl)piperidin-4-yl]methyl}-N-(1,4-dioxan-2-ylmethyl)-4-methyl-2H-indazol-5-carboxamide] |
| xxx (xxx > 100) | 155 nM | xxx (xxx > 100) | Cc1c(C(=O)NCC#N)ccc2nn(CC3CCN(C(=O)c4ccc(Cl)cc4)CC3)cc12 [Example 401, 2-{[1-(4-chlorobenzoyl)piperidin-4-yl]methyl}-N-(cyanomethyl)-4-methyl-2H-indazol-5-carboxamide] |
| xxx (xxx > 100) | 70.8 nM | xxx (xxx > 100) | COc1ccc2cc(C(=O)N3CCC(Cn4cc5c(C)c(C(=O)NCC(F)(F)F)ccc5n4)CC3)n(C)c2c1 [Example 295, 2-({1-[(6-methoxy-1-methyl-1H-indol-2-yl)carbonyl]piperidin-4-yl}methyl)-4-methyl-N-(2,2,2-trifluoroethyl)-2H-indazol-5-carboxamide] |
| xxx (xxx > 100) | 19.2 nM | xxx (xxx > 100) | Cc1c(C(=O)NCCOCC2CC2)ccc2nn(CC3CCN(C(=O)c4ccc(Cl)cc4)CC3)cc12 [Example 84, 2-{[1-(4-chlorobenzoyl)piperidin-4-yl]methyl}-N-[2-(cyclopropylmethoxy)ethyl]-4-methyl-2H-indazol-5-carboxamide] |
| xxx (xxx > 100) | 11.5 nM | xxx (xxx > 100) | Cc1c(C(=O)NCCOCC(F)(F)F)ccc2nn(CC3CCN(C(=O)c4ccc(C(F)(F)F)cc4)CC3)cc12 [Example 93, 4-methyl-N-[2-(2,2,2-trifluoro-ethoxy)ethyl]-2-({1-[4-(trifluoro-methyl)benzoyl]-piperidin-4-yl}-methyl)-2H-indazol-5-carboxamide] |
| xxx (xxx > 100) | 50.1 nM | xxx (xxx > 100) | COCCNC(=O)c1cc2cn(CC3CCN(C(=O)c4ccc(C(F)(F)F)cc4)CC3)nc2cc1C [Example 211, N-(2-methoxyethyl)-6-methyl-2-({1-[4-(trifluoromethyl)benzoyl]piperidin-4-yl}-methyl)-2H-indazol-5-carboxamide] |
| xxx (xxx > 100) | 11.6 nM | xxx (xxx > 100) | Cc1c(C(=O)NCCC#N)ccc2nn(CC3CCN(C(=O)c4ccc(-c5ccc(F)cc5)cc4)CC3)cc12 [Example 407, N-(2-cyanoethyl)-2-({1-[(4′-fluorobiphenyl-4-yl)carbonyl]piperidin-4-yl}-methyl)-4-methyl-2H-indazol-5-carboxamide] |
| xxx (xxx > 100) | 6.84 nM | xxx (xxx > 100) | COCCNC(=O)c1ccc2nn(CC3CCN(C(=O)c4ccc(-c5ccc(OC)cc5)cc4)CC3)cc2c1C [Example 351, 2-({1-[(4′-methoxybiphenyl-4-yl)carbonyl]piperidin-4-yl}methyl)-N-(2-methoxy-ethyl)-4-methyl-2H-indazol-5-carboxamide] |
| xxx (xxx > 100) | 43.3 nM | xxx (xxx > 100) | COCCNC(=O)c1cc2cn(CC3CCN(C(=O)c4ccc(Cl)cc4)CC3)nc2cc1C [Example 205, 2-{[1-(4-chlorobenzoyl)piperidin-4-yl]methyl}-N-(2-methoxyethyl)-6-methyl-2H-indazol-5-carboxamide] |
| xxx (xxx > 100) | 85.7 nM | xxx (xxx > 100) | Cc1cc2nn(CC3CN(C(=O)c4ccc(-c5ccc(F)cc5)cc4)C3)cc2cc1C(=O)NCC(F)(F)F [Example 203, 2-({1-[(4′-fluorobiphenyl-4-yl)carbonyl]azetidin-3-yl}methyl)-6-methyl-N-(2,2,2-trifluoroethyl)-2H-indazol-5-carboxamide] |
| xxx (xxx > 100) | 23.7 nM | xxx (xxx > 100) | COCCNC(=O)c1ccc2nn(CC3CCN(C(=O)c4ccc(OC(F)(F)F)c(F)c4)CC3)cc2c1OC [Example 272, 2-({1-[3-fluoro-4-(trifluoromethoxy)benzoyl]piperidin-4-yl}methyl)-4-methoxy-N-(2-methoxyethyl)-2H-indazol-5-carboxamide] |
| xx (xx: 10-100) | 460 nM | xx (xx: 10-100) | Cc1ccc(-c2ccc(C(=O)N3CCC(Cn4cc5c(C)c(C(=O)NCC(F)(F)F)ccc5n4)CC3)cc2)nc1 [Example 324, 4-methyl-2-({1-[4-(5-methylpyridin-2-yl)benzoyl]piperidin-4-yl}methyl)-N-(2,2,2-trifluoroethyl)-2H-indazol-5-carboxamide] |
| x (x: 1-10) | 2140 nM | x (x: 1-10) | Cc1c(C(=O)NCC(C)(C)C)ccc2nn(CC3CCN(C(=O)c4ccc(Oc5ccc(C(F)(F)F)cc5)cc4)CC3)cc12 [Example 405, 4-methyl-N-neopentyl-2-[(1-{4-[4-(trifluoromethyl)phenoxy]benzoyl}piperidin-4-yl)methyl]-2H-indazol-5-carboxamide] |
| xxx (xxx > 100) | 32.6 nM | xxx (xxx > 100) | Cc1cc2nn(CC3CCN(C(=O)c4ccc(-c5ccc(F)cc5)cc4)CC3)cc2cc1C(=O)NCCN1CCOCC1 [Example 83, 2-({l-[(4′-fluoro-biphenyl-4-yl)-carbonyl]piperidin-4-yl}methyl)-6-methyl-N-(2-morpholino-ethyl)-2H-indazol-5-carboxamide] |
| xx (xx: 10-100) | 175 nM | xx (xx: 10-100) | Cc1c(C(=O)NCCN2CCOCC2)ccc2nn(CC3CCN(C(=O)c4ccc(S(F)(F)(F)(F)F)cc4)CC3)cc12 [Example 60, 4-methyl-N-(2-morpholinoethyl)-2-({1-[4-(pentafluoro-λ^6-sulphanyl)benzoyl]-piperidin-4-yl}methyl)-2H-indazol-5-carboxamide] |
| xxx (xxx > 100) | 25.6 nM | xxx (xxx > 100) | CCOCCNC(=O)c1ccc2nn(CC3CN(C(=O)c4ccc(Cl)cc4)C3)cc2c1OC [Example 259, 2-{[1-(4-chlorobenzoyl)azetidin-3-yl]methyl}-N-(2-ethoxyethyl)-4-methoxy-2H-indazol-5-carboxamide] |
